# Data as given in patent publication US10717730B1, “Dihydroisoquinoline compound” (SUZHOU ARK BIOPHARMACEUTICAL CO., LTD., priority 2017, dated 2020).
# How the values were obtained:
# [1] = Cytotoxicity CC50 (CellTiter-Glo); assay type: cell-based; conditions: human; HepG2.2.15 cells, four days
# Procedure: HepG2.2.15 cells were seeded into 96-well white plate at 5000 cells/well and treated with serially diluted compounds. The plates were incubated in incubator with 5% CO2 at 37° C. for four days. The plate was taken out of incubator and adapted to room temperature for 30 minutes, followed by adding 25 μl CellTiter-Glo (Promega) reagent into each well and votexed at room temperature before being measured for luminance using spectrometer (Tecan Infinite® F200). The CC50 of each compound was defined as the compound concentration at which the treated well's cell viability is 50% compared to that of the DMSO treated well.
# HBsAg = HBsAg assay (secreted HBsAg by CLIA in HepG2.2.15 cells); assay type: cell-based, hepatitis B virus (HBV); conditions: Hepatitis B virus, HepG2.2.15, 96 h
# Outline: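 HepG2.2.15 cells were exposed to a five-fold compound dilution series (0.5% DMSO final) for four days. Secreted HBsAg in supernatant quantified by chemiluminescence immunoassay; IC50 extrapolated from dose-response curves.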
SMILES,CC50 at 4 days [1],IC50 (HBsAg)
"COc1cc2c(cc1-c1cnn(CCC(=O)O)c1)CC(C(C)(C)C)n1cc(C(=O)O)c(=O)cc1-2 (stereo not drawn) [Example 22, 6-(tert-butyl)-9-(1-(2-carboxyethyl)-1H-pyrazol-4-yl)-10-methoxy-2-oxo-6,7-dihydro-2H-pyrido[2,1-a]isoquinoline-3-carboxylic acid]",50 to 100 µM,0.007 µM
"COc1cc2c(cc1-c1cnn(CCCC(=O)O)c1)CC(C(C)(C)C)n1cc(C(=O)O)c(=O)cc1-2 (stereo not drawn) [Example 24, 6-(tert-butyl)-9-(1-(3-carboxypropyl)-1H-pyrazol-4-yl)-10-methoxy-2-oxo-6,7-dihydro-2H-pyrido[2,1-a]isoquinoline-3-carboxylic acid]",50 to 100 µM,0.008 µM
"COc1cc2c(cc1-c1c[nH]nc1C)CC(C(C)(C)C)n1cc(C(=O)O)c(=O)cc1-2 (stereo not drawn) [Example 25, 6-(tert-butyl)-10-methoxy-9-(3-methyl-1H-pyrazol-4-yl)-2-oxo-6,7-dihydro-2H-pyrido[2,1-a]isoquinoline-3-carboxylic acid]",50 to 100 µM,0.007 µM
"COc1cc2c(cc1-c1cnc(C)s1)CC(C(C)(C)C)n1cc(C(=O)O)c(=O)cc1-2 (stereo not drawn) [Example 28, 6-(tert-butyl)-10-methoxy-9-(2-methylthiazol-5-yl)-2-oxo-6,7-dihydro-2H-pyrido[2,1-a]isoquinoline-3-carboxylic acid]",> 100 µM,0.0002 µM
"COc1cc2c(cc1-c1nncn1CCCO)CC(C(C)(C)C)n1cc(C(=O)O)c(=O)cc1-2 (stereo not drawn) [Example 31, 6-(tert-butyl)-9-(4-(3-hydroxypropyl)-4H-1,2,4-triazol-3-yl)-10-methoxy-2-oxo-6,7-dihydro-2H-pyrido[2,1-a]isoquinoline-3-carboxylic acid]",50 to 100 µM,0.826 µM
"COc1cc2c(cc1-c1ncn(CCCO)n1)CC(C(C)(C)C)n1cc(C(=O)O)c(=O)cc1-2 (stereo not drawn) [Example 32, 6-(tert-butyl)-9-(1-(3-hydroxypropyl)-1H-1,2,4-triazol-3-yl)-10-methoxy-2-oxo-6,7-dihydro-2H-pyrido[2,1-a]isoquinoline-3-carboxylic acid]",50 to 100 µM,0.097 µM
"COc1cc2c(cc1-c1ccc(C)nc1)CC(C(C)(C)C)n1cc(C(=O)O)c(=O)cc1-2 (stereo not drawn) [Example 37, 6-(tert-butyl)-10-methoxy-9-(6-methylpyridin-3-yl)-2-oxo-6,7-dihydro-2H-pyrido[2,1-a]isoquinoline-3-carboxylic acid]",50 to 100 µM,0.009 µM
"COc1cc2c(cc1-c1ccc(N3CCC3)nc1)CC(C(C)(C)C)n1cc(C(=O)O)c(=O)cc1-2 (stereo not drawn) [Example 50, 9-(6-(azetidin-1-yl)pyridin-3-yl)-6-(tert-butyl)-10-methoxy-2-oxo-6,7-dihydro-2H-pyrido[2,1-a]isoquinoline-3-carboxylic acid]",50 to 100 µM,0.0005 µM
"COc1cc2c(cc1-c1ccc(N3CCC(O)CC3)nc1)CC(C(C)(C)C)n1cc(C(=O)O)c(=O)cc1-2 (stereo not drawn) [Example 51, 6-(tert-butyl)-9-(6-(4-hydroxypiperidin-1-yl)pyridin-3-yl)-10-methoxy-2-oxo-6,7-dihydro-2H-pyrido[2,1-a]isoquinoline-3-carboxylic acid]",> 100 µM,0.0008 µM
"CNc1ncc(-c2cc3c(cc2OC)-c2cc(=O)c(C(=O)O)cn2C(C(C)(C)C)C3)cn1 (stereo not drawn) [Example 60, 6-(tert-butyl)-10-methoxy-9-(2-(methylamino)pyrimidin-5-yl)-2-oxo-6,7-dihydro-2H-pyrido[2,1-a]isoquinoline-3-carboxylic acid]",50 to 100 µM,0.0001 µM
"CCN1CCN(c2ncc(-c3cc4c(cc3OC)-c3cc(=O)c(C(=O)O)cn3C(C(C)(C)C)C4)cn2)CC1 (stereo not drawn) [Example 63, 6-(tert-butyl)-9-(2-(4-ethylpiperazin-1-yl)pyrimidin-5-yl)-10-methoxy-2-oxo-6,7-dihydro-2H-pyrido[2,1-a]isoquinoline-3-carboxylic acid]",50 to 100 µM,0.027 µM
"COc1cc2c(cc1-c1cnc(N3CCC3)nc1)CC(C(C)(C)C)n1cc(C(=O)O)c(=O)cc1-2 (stereo not drawn) [Example 69, 9-(2-(azetidin-1-yl)pyrimidin-5-yl)-6-(tert-butyl)-10-methoxy-2-oxo-6,7-dihydro-2H-pyrido[2,1-a]isoquinoline-3-carboxylic acid]",50 to 100 µM,0.005 µM
"CCOC(=O)c1cn2c(cc1=O)-c1cc(OC)c(-c3ccc(=O)n(C(C)(C)C(=O)OCC)c3)cc1CC2C(C)(C)C (stereo not drawn) [Example 70, Ethyl 6-(tert-butyl)-9-(1-(1-ethoxy-2-methyl-1-oxoprop-2-yl)-6-oxo-1,6-dihydropyridin-3-yl)-10-methoxy-2-oxo-6,7-dihydro-2H-pyrido[2,1-a]isoquinoline-3-carboxylate]",50 to 100 µM,0.044 µM
"CCOC(=O)Cn1cc(-c2cc3c(cc2OC)-c2cc(=O)c(C(=O)OCC)cn2C(C(C)(C)C)C3)ccc1=O (stereo not drawn) [Example 71, Ethyl 6-(tert-butyl)-9-(1-(2-ethoxy-2-oxoethyl)-6-oxo-1,6-dihydropyridin-3-yl)-10-methoxy-2-oxo-6,7-dihydro-2H-pyrido[2,1-a]isoquinoline-3-carboxylate]",> 100 µM,0.192 µM
"CCOC(=O)CCn1cc(-c2cc3c(cc2OC)-c2cc(=O)c(C(=O)OCC)cn2C(C(C)(C)C)C3)ccc1=O (stereo not drawn) [Example 72, Ethyl 6-(tert-butyl)-9-(1-(3-ethoxy-3-oxopropyl)-6-oxo-1,6-dihydropyridin-3-yl)-10-methoxy-2-oxo-6,7-dihydro-2H-pyrido[2,1-a]isoquinoline-3-carboxylate]",50 to 100 µM,0.565 µM
"COc1cc2c(cc1-c1cnc(N3CCC(C(=O)O)CC3)nc1)CC(C(C)(C)C)n1cc(C(=O)O)c(=O)cc1-2 (stereo not drawn) [Example 73, 6-(tert-butyl)-9-(2-(4-carboxypiperidin-1-yl)pyrimidin-5-yl)-10-methoxy-2-oxo-6,7-dihydro-2H-pyrido[2,1-a]isoquinoline-3-carboxylic acid]",> 100 µM,0.067 µM
"CCOC(=O)c1cn2c(cc1=O)-c1cc(OC)c(-c3ccc(=O)n(C(C)C(=O)OCC)c3)cc1CC2C(C)(C)C (stereo not drawn) [Example 74, Ethyl 6-(tert-butyl)-9-(1-(1-ethoxy-1-oxoprop-2-yl)-6-oxo-1,6-dihydro-pyridin-3-yl)-10-methoxy-2-oxo-6,7-dihydro-2H-pyrido[2,1-a]isoquinoline-3-carboxylate]",50 to 100 µM,0.129 µM
"CCOC(=O)CCCn1cc(-c2cc3c(cc2OC)-c2cc(=O)c(C(=O)OCC)cn2C(C(C)(C)C)C3)ccc1=O (stereo not drawn) [Example 75, Ethyl 6-(tert-butyl)-9-(1-(4-ethoxy-4-oxobutyl)-6-oxo-1,6-dihydropyridin-3-yl)-10-methoxy-2-oxo-6,7-dihydro-2H-pyrido[2,1-a]isoquinoline-3-carboxylate]",50 to 100 µM,0.466 µM
